Laboratory results from patent US12564610B2, “Human periventricular endothelial cell therapy for neuropsychiatric disorders” (The McLean Hospital Corporation, priority 2019, dated 2026).

What was measured:
Format in all cases: cell-based
[1] = test system: human periventricular endothelial cells; test: Long-distance migration assay of periventricular endothelial cells with chemicals; conditions: compared to control (no chemicals added), five days
Excerpt: Long-distance migration assay: In preparation for migration assays, two-well silicone culture inserts (from ibidi GmbH, Cat #80209) were converted into one-well inserts by cutting with a sharp, sterile blade. Individual one-well inserts were placed in the middle of a 35 mm dish coated with Poly-Ornithine and Laminin. The boundary of the insert was marked on the back of each dish with a thin marker. For this assay, periventricular endothelial cells, control endothelial cells and endothelial cells derived without GABA and WNT7A were used at passage number P2 or P3, while GABA interneurons cultured for six weeks were used. 10^4 periventricular endothelial cells or endothelial cells derived without GABA and WNT7A were seeded in each insert in periventricular endothelial cell medium without GABA. Same number of GABAergic interneurons or control endothelial cells were seeded per insert in their respective manufacturer's recommended medium. The insert was removed after 48 hours and cells cultured for five days. After 5 days, cells were fixed and fluorescently labeled with an anti-human CD31 antibody (for endothelial cells) or an anti-human β-Tubulin antibody (for neurons) and DAPI. The distance between each cell body and the edge of the insert-boundary was measured using ImageJ.
Migration assays with chemicals: To assess the roles of GABA or SDF-1/CXCL12 signaling on migration of human periventricular endothelial cells, 10^4 cells were seeded in one well insert and allowed to migrate in the presence of respective agonist or antagonist in periventricular endothelial cell medium (without GABA). After five days, cells were fixed, stained with anti-human CD31 antibody (Millipore), imaged and the distance migrated was calculated using ImageJ. To examine the effect of endothelial GABA or endothelial SDF-1/CXCL12 signaling on interneuron migration, human periventricular endothelial cells were seeded in 35 mm dish (10^5 cells/cm^2) and incubated with respective chemical for a period of 48 hours. […]

[2] = test system: GABAergic interneurons on pre-incubated human periventricular endothelial cells; test: Interneuron migration over chemical-pre-treated periventricular endothelial cells; conditions: interneurons migrate 48 hours, vs control
Description: Migration assays with chemicals: To assess the roles of GABA or SDF-1/CXCL12 signaling on migration of human periventricular endothelial cells, 10^4 cells were seeded in one well insert and allowed to migrate in the presence of respective agonist or antagonist in periventricular endothelial cell medium (without GABA). After five days, cells were fixed, stained with anti-human CD31 antibody (Millipore), imaged and the distance migrated was calculated using ImageJ. To examine the effect of endothelial GABA or endothelial SDF-1/CXCL12 signaling on interneuron migration, human periventricular endothelial cells were seeded in 35 mm dish (10^5 cells/cm^2) and incubated with respective chemical for a period of 48 hours. 3×10^4 GABAergic interneurons were seeded on top of the periventricular endothelial cells using a one-well insert, and allowed to migrate over the pre-incubated periventricular endothelial cells for 2 days. Migration of neurons was assayed by staining with anti-human β-Tubulin antibody (Biolegend) and imaged. The concentration of chemicals used in the assays are as follows: muscimol (Sigma) 100 uM, BMI (Sigma) 100 uM, AMD3100 (Sigma) 50 μM, recombinant human SDF-1α (Peprotech) 40 nM. The chemicals were kept at −20° as concentrated stock solutions and diluted on the day of the experiment.

[3] = test system: human periventricular endothelial cells; test: Junction protein immunostaining in differentiating periventricular endothelial cells (effect of GABA / WNT7A)
Description: Endothelial cell differentiation and culture: H9 cells (WiCell, Madison, WI) were maintained in E8 media (Thermo Fisher Scientific) on Matrigel (BD Biosciences)-coated plates and passaged once a week with 0.5 mM EDTA (Thermo Fisher Scientific) in PBS. On day 0 of differentiation, H9 cells were dissociated with Accutase (Sigma), and plated at a density of 10^5 cells/cm^2 on Matrigel-coated plates. […] Rock inhibitor, Y-27632 (1004, Selleck Chemicals) was added for first 24 hours to improve cell survival. On day 2, cells were switched to vascular inducing medium composed of E6 medium (Thermo Fisher Scientific) containing BMP4 (50 ng/ml), SB431542 (5 μM, Cayman Chemicals), GABA (5 μM), WNT7A (500 ng/ml), FGF2 (100 ng/ml, Peprotech) and VEGF-A (50 ng/ml, Peprotech). On day 5, cells were split at 1:6 ratio using Accutase and plated on Matrigel-coated plates in periventricular endothelial cell (PVEC) medium consisting of E6 with VEGF-A (50 ng/ml), FGF2 (100 ng/ml) and GABA (5 μM). On day 7, periventricular endothelial cells were isolated from the mixed population by fluorescence-activated cell sorting (FACS) and seeded on Matrigel-coated plates in periventricular endothelial cells medium at a density of 6×10^5 cells/cm^2. For routine culturing, periventricular endothelial cells were dissociated using Accutase, and seeded on Matrigel-coated plates at a density of 6×10^5 cells/cm^2 (high density seeding) or 1.2×10^5 cells/cm^2 (low density seeding), with medium change every alternate day. Periventricular endothelial cells were cryopreserved after at least one passaging in freezing medium composed of 90% periventricular endothelial cells medium and 10% DMSO. As a source of neurons, we used human iPSC-derived GABAergic neurons from Cellular Dynamics (Madison, WI, Cat #R1013). As control for microarray analysis and for cell migration assays, we used human-iPSC derived endothelial cells from Cellular Dynamics (Madison WI, Cat #R1022), whose gene expression profile is similar to human aortic endothelial cells (HAECs; https://fujifilmedi.com/assets/CDI130925MIPTEC04.pdf). […]

[4] = endothelial cells treated 48 hours with 100 μM

SMILES: c1cc(CN2CCCNCCNCCCNCC2)ccc1CN1CCCNCCNCCCNCC1 [AMD3100]
- periventricular endothelial cell migration ([1]; 50 μM): no significant effect on endothelial cell migration
- interneuron migration on pre-treated periventricular endothelial cells ([2]; endothelial cells treated 48 hours with 50 μM): No discernible effect on interneuron migration

SMILES: C[N+]1(C)CCc2cc3c(cc2[C@H]1[C@@H]1OC(=O)c2c1ccc1c2OCO1)OCO3.[I-] [BMI, bicuculline methiodide]
- periventricular endothelial cell migration ([1]; 100 μM): significant decrease in cell migration
- interneuron migration on pre-treated periventricular endothelial cells [2, 4]: decreased migration

SMILES: NCCCC(=O)O [GABA, gamma amino-butyric acid]
- tight junction formation (Claudin5 and ZO-1 staining) ([3]; 5 uM GABA, in comparison to 50 μM or 100 μM): increases tight junction formation
- localization of tight junction proteins Claudin 5 and ZO-1 ([3]; 50 uM or 100 μM GABA): disrupted the localization of tight junction proteins Claudin 5 and ZO-1
- expression of VE-Cadherin ([3]; increase in GABA levels (5, 50, 100 μM)): not affected by increase in GABA levels

SMILES: NCc1cc(=O)[nH]o1 [muscimol]
- periventricular endothelial cell migration ([1]; 100 μM): significant increase in the number of migrating cells
- interneuron migration on pre-treated periventricular endothelial cells [2, 4]: significantly higher migratory ability
